Laboratory results taken from patent US11590129B2, “Combination therapy with an antitumor alkaloid” (PHARMA MAR, S.A., priority 2010, dated 2023).
pEC50, pIC50: −log10 of the molar value.

Columns and labels:
[1] = system: RXF-393 human kidney carcinoma cell line; test: cells; conditions: Homo sapiens, RXF 393, 72 h
Procedure: (§1) a. […] Briefly, cells were harvested and seeded in 96 well microtiter plates at a density of 5,000 cells in 150 μL of culture medium and incubated for 24 hours in drug-free medium before treatment with vehicle alone or test compounds for 72 h.
(§2) The cytotoxic effect was measured by the MTT reduction assay, in which 3-(4,5-Dimethylthiazol-2-yl)-2,5-diphenyltetrazolium bromide, a tetrazole, which is reduced to purple formazan in the mitochondria of living cells, was used. MTT (50 μL of 1 mg/mL stock solution) was added to the wells and incubated for 8 hours at 37° C. until formazan crystals were formed. After gently removing the culture medium, DMSO was added to dissolve the insoluble purple formazan product into a colored solution. […] Results were expressed as percentage of control cell growth.
(§3) b. In a second set of assays, A549 human tumor cells were incubated with PM01183 in combination with each of the agents mentioned above.
(§4) As a visual aid, response values were plotted on a scatter plot with dose ratios given on the x-axis and % response values on the y-axis. […] In cases where response values at the two endpoints were approximately equivalent, points lying above or below this predicted line of additivity could be interpreted as representing antagonistic or synergistic drug interaction, respectively.
(§5) Additional serial dilutions were prepared in serum-free culture medium to achieve a final 4× concentration. Aliquots of 50 μL of each diluted compound were added per well.

[2] = system: MDA-MB-231 human breast adenocarcinoma cell line; test: cells; conditions: Homo sapiens, MDA-MB-231, 72 h
Procedure: as §1, §2, §3, §4, §5

[3] = system: PC-3 human prostate cancer cell line; test: cells; conditions: Homo sapiens, PC-3, 72 h
Procedure: as §1, §2, §3, §4, §5
PC-3 was the human prostate adenocarcinome cell line selected for this assay.

[4] = system: SK-MEL-2 human melanoma cell line; test: cells; conditions: Homo sapiens, SK-MEL-2, 72 h
Procedure: as §1, §2, §3, §4, §5
SK-MEL-2 was the human melanoma cell line selected for this assay.

A2780 tumors = test: Human ovarian tumor xenografts (A2780) in athymic nude mice, tumor volume % T/C; format: in vivo
Procedure: Female athymic nude mice (Harlan Laboratories Models, S.L. (Barcelona, Spain) were utilized for all experiments. Animals were housed in individually ventilated cages, up to ten per cage in a 12-hour light-dark cycle at 21-23° C. and 40-60% humidity. The mice were allowed free access to irradiated standard rodent diet and sterilized water. Animals were acclimated for at least 5 days prior to tumor implantation with a tumor cell suspension.
The formula to calculate volume for a prolate ellipsoid was used to estimate tumor volume (mm^3) from 2-dimensional tumor measurements: Tumor volume (mm^3)=[L×W^2]÷2, where L is the length and it is the longest diameter in mm, and W is the width and it is the shortest diameter in mm of a tumor. Assuming unit density, volume was converted to weight (i.e., 1 mm^3=1 mg). Tumor volume and animal body weights were measured 2-3 times per week starting form the first day of treatment (Day 0).
PM01183 was provided in the form of vials of lyophilized PM01183 cake which was reconstituted with water for infusion to a concentration of 0.2 mg/mL. The PM01183 stock solution was further diluted in 5% glucose solution for injection to the dosing formulation concentrations. […] Vinorelbine was provided as a solution prepared by diluting the product with 0.9% saline solution.
Dose level groups were administered either as single agents or in combination.
Comparison of the median tumor volume in the treatment groups (T) to the median tumor volume in the control group (T/C×100%) was used for evaluation of the antitumor efficacy.
Day 9 for PM01183 and vinorelbine study) using the median-effect principle (Chou T. C. Pharmacol. Rev.

[5] = system: PANC-1 human pancreatic carcinoma cell line; test: cells; conditions: Homo sapiens, PANC-1, 72 h
Procedure: as §1, §2, §3, §4, §5
PANC-1 was the human pancreatic carcinoma cell line selected for this assay.

[6] = system: HepG2 human hepatocellular liver carcinoma cell line; test: MTT cytotoxicity assay in HepG2 cells: IC50 of single agents and combinations with PM01183; format: cell-based; conditions: Homo sapiens, HepG2, 72 h
Procedure: as §1, §2, §3, §4, §5
HepG2 was the human hepatocellular liver carcinoma cell line selected for this assay.

[7] = system: HGC-27 human gastric carcinoma cell line; test: cells; conditions: Homo sapiens, HGC-27, 72 h
Procedure: as §1, §2, §3, §4, §5
HGC-27 was the human gastric carcinoma cell line selected for this assay.

[8] = system: U87-MG human glioblastoma cell line; test: cells; conditions: Homo sapiens, U-87 MG, 72 h
Procedure: as §1, §2, §3, §4, §5
U87-MG was the human glioblastoma cell line selected for this assay.

[9] = system: HT-29 human colon adenocarcinoma cell line; test: cells; conditions: Homo sapiens, HT-29, 72 h
Procedure: as §1, §2, §3, §4, §5
HT-29 was the human colon adenocarcinoma cell line selected for this assay.

[10] = system: IGROV-1 human ovarian adenocarcinoma cell line; test: cells; conditions: Homo sapiens, IGROV-1, 72 h
Procedure: as §1, §2, §3, §4, §5
IGROV-1 was the human ovarian adenocarcinoma cell line selected for this assay.

[11] = system: A549 human lung carcinoma cell line; test: MTT cytotoxicity assay in A549 cells: IC50 of single agents and combinations with PM01183; format: cell-based; conditions: Homo sapiens, A549, 72 h
Procedure: as §5
A549 was the human lung carcinoma cell line selected for this assay.
as §1, §2, §3, §4

[12] = system: A673 human rhabdomyosarcoma cell line; test: cells; conditions: Homo sapiens, A673, 72 h
Procedure: as §1, §2, §3, §4, §5
A673 was the human rhabdomyosarcoma cell line selected for this assay.

[13] = system: RAMOS human lymphoma cell line; test: cells; conditions: Homo sapiens, Ramos, 72 h
Procedure: Briefly, cells were seeded in 96 well microtiter plates at a density of 50000 cells per well in 150 μL of culture medium and incubated for 4-6 hours in drug-free medium before treatment with vehicle alone or test compounds for 72 hours.
After incubation, the cytotoxic effect was evaluated using a MTT reduction assay. 50 μL of MTT solution (1 mg/mL) were added to the wells and incubated for 15-17 hours at 37° C. until formazan crystals were formed. After gently removing the culture medium, DMSO was added to dissolve the insoluble purple formazan product into a colored solution. […] Results were expressed as percentage of control cell growth. The EC50 values (half-maximal effective concentration) used for the combination studies were calculated using Prism v5.02 software (GraphPad). EC50 was expressed as molar concentration and represented the mean of at least three independent assays.
Using these starting concentrations, constant serial dilutions were performed to generate the concentration-response curves for each set of drugs, alone and in combination.
Based on this equation, the term “combination index” (CI) is used as a quantitative measure of the degree of drug interactions. […] CI values were calculated by solving the equation for different values of fa (i.e., for different degrees of cell groth inhibition).
Data were analyzed using CalcuSyn software (Biosoft, Cambridge, UK). For statistical analysis and graphs Prism software (GraphPad, San Diego, USA) was used. All the results represent the mean of at least three independent experiments.
as §5
In the second set of assays, concentration-response curves for the agents tested, both alone and in two-drug combination, were performed.

[14] = doxorubicin 2.0 mg/kg iv days 0,7
[15] = doxorubicin 4.0 mg/kg iv days 0,7
[16] = doxorubicin 6.0 mg/kg iv days 0,7
[17] = doxorubicin 8.0 mg/kg iv days 0,7

SMILES | pIC50 [1] | pIC50 [2] | pIC50 [3] | pIC50 [4] | pIC50 [5] | pIC50 [6] | pIC50 [7] | pIC50 [8] | pIC50 [9] | pIC50 [10] | pIC50 [12] | also measured
COc1cccc2c1C(=O)c1c(O)c3c(c(O)c1C2=O)C[C@@](O)(C(=O)CO)C[C@@H]3O[C@H]1C[C@H](N)[C@H](O)[C@H](C)O1 [Doxorubicin, doxorubicin] | 6.10 | 6.22 | 5.83 | 6.52 | 5.46 | 6.70 | 7.27 | 6.52 | 6.05 | 6.59 | – | % T/C on day 0 (A2780 tumors; [14]): 99.8%; % T/C on day 3 (A2780 tumors; [14]): 91.5%; % T/C on day 5 (A2780 tumors; [14]): 93.1%; % T/C on day 7 (A2780 tumors; [14]): 94.2%; % T/C on day 10 (A2780 tumors; [14]): 86.2%; % T/C on day 0 (A2780 tumors; [15]): 102.0%; % T/C on day 3 (A2780 tumors; [15]): 82.9%; % T/C on day 5 (A2780 tumors; [15]): 75.1%; % T/C on day 7 (A2780 tumors; [15]): 75.0%; % T/C on day 0 (A2780 tumors; [16]): 99.4%; % T/C on day 3 (A2780 tumors; [16]): 71.0%; % T/C on day 5 (A2780 tumors; [16]): 60.3%; % T/C on day 7 (A2780 tumors; [16]): 56.8%; % T/C on day 10 (A2780 tumors; [16]): 54.3%; % T/C on day 0 (A2780 tumors; [17]): 99.5%; % T/C on day 3 (A2780 tumors; [17]): 60.8%; % T/C on day 5 (A2780 tumors; [17]): 49.8%; % T/C on day 7 (A2780 tumors; [17]): 48.1%; % T/C on day 10 (A2780 tumors; [17]): 39.4%
COc1cc([C@@H]2c3cc4c(cc3[C@@H](O[C@@H]3O[C@@H]5CO[C@@H](C)O[C@H]5[C@H](O)[C@H]3O)[C@H]3COC(=O)[C@H]23)OCO4)cc(OC)c1O [Etoposide, etoposide] | 4.70 | 5.32 | 4.32 | 5.54 | 5.00 | 4.98 | 5.54 | 4.73 | 5.26 | 5.51 | 5.81 | pIC50 [11]: 6.11
Nc1ccn([C@@H]2O[C@H](CO)[C@@H](O)[C@@H]2O)c(=O)n1 [Cytarabine, cytarabine] | 4.30 | 5.02 | 4.40 | 5.41 | 4.05 | 4.69 | 4.30 | – | 5.11 | 4.93 | 6.71 | pEC50 [13]: 7.44
